This is an account of results in article PMC10901556, “Conservation of Affinity Rather Than Sequence Underlies a Dynamic Evolution of the Motif-Mediated p53/MDM2 Interaction in Ray-Finned Fishes” (Molecular Biology and Evolution, 2024).

Common to all, as to experiment: Fluorescence polarization displacement assay
Holding throughout (type): binding
On the technique in general: In fluorescence polarisation assays a small probe gives low polarisation when free and higher when bound to something large.

Assay [1] deals with T1, MDM2H.sapiens SWIB domain (Homo sapiens, UniProt Q00987).
T1 construct: NusA-TEV-His6-PreScission (N, cleaved yes); made in house; host or cells: Escherichia coli BL21 (DE3)

Assay [2] has as its target MDM2 SWIB domain, Oncorhynchus kisutch. As to conditions: for Kd: FP displacement of FITC-p53TADhuman^15–26 (15 nM) from MDM2, KD from IC50, 20 mM sodium phosphate pH 7.4, 150 mM NaCl, 1 mM TCEP; for IC50 / Ki: O.kis MDM2 2000 nM.
Assay [3] addresses MDM2 SWIB domain, Clupea harengus. As to conditions: for Kd: FP displacement of FITC-p53TADhuman^15–26 (15 nM) from MDM2 (1 μM), KD from IC50, 20 mM sodium phosphate pH 7.4, 150 mM NaCl, 1 mM TCEP.
The target of assay [4] is MDM2 SWIB domain, Anguilla anguilla. As to conditions: for Kd: FP displacement of FITC-p53TADhuman^15–26 (15 nM) from MDM2 (1 μM), KD from IC50, 20 mM sodium phosphate pH 7.4, 150 mM NaCl, 1 mM TCEP.
The mark [5] stands for this setting: labeled probe 15 nM, replicate 1, read-out: IC50 [M] (IT).
The mark [6] stands for this setting: labeled probe 15 nM, replicate 2, read-out: IC50 [M] (IT).
The mark [7] stands for this setting: labeled probe 15 nM, replicate 3, read-out: IC50 [M] (IT).
The mark [8] stands for this setting: average of the replicates, probe 15 nM, Kd for probe […], read-out: Ki [nM] Average.
[9] abbreviates: average of the replicates, probe 15 nM, Kd for probe […], read-out: Ki [µM] Average.
The mark [10] stands for this setting: calculated from IC50, Kd for probe […], probe 15 nM, replicate 1, read-out: Ki.
The mark [11] stands for this setting: calculated from IC50, Kd for probe […], probe 15 nM, replicate 2, read-out: Ki.
The mark [12] stands for this setting: calculated from IC50, Kd for probe […], probe 15 nM, replicate 3, read-out: Ki.
[13] abbreviates: mean of the replicates, probe 15 nM, read-out: IC50 [nM], mean of the replicates.
The mark [14] stands for this setting: equals the mean of the replicates, read-out: IC50 [nM], mean.
Setting [15] is: mean of the replicates (n = 3 or 6), read-out: Ki [nM] Average.
Setting [16] is: mean of the replicates (n = 3 or 6), read-out: Ki [µM] Average.
[17] abbreviates: replicate 1, MDM2 1000 nM, labeled probe 15 nM, read-out: IC50 [M] (IT).
Setting [18] is: replicate 1, calculated from IC50 with Kd for probe […], read-out: Ki.
The mark [19] stands for this setting: replicate 2, MDM2 1000 nM, labeled probe 15 nM, read-out: IC50 [M] (IT).
The mark [20] stands for this setting: replicate 2, calculated from IC50 with Kd for probe […], read-out: Ki.
[21] abbreviates: replicate 3, MDM2 1000 nM, labeled probe 15 nM, read-out: IC50 [M] (IT).
The mark [22] stands for this setting: replicate 3, calculated from IC50 with Kd for probe […], read-out: Ki.

One may read the IC50 as the concentration needed to halve the response being measured. By Ki is commonly meant a dissociation constant, usually derived from enzyme kinetics or from competition with a known ligand. One may read the Kd as the free concentration of one partner at which half of the binding sites on the other are occupied at equilibrium, for simple one-to-one binding. A high value points to weaker binding.

Where two headings read alike, the source gives them in different places. Where no end group is shown, it is not given here.

Chain of MDM2 SWIB domain, Oncorhynchus kisutch (as listed by the source): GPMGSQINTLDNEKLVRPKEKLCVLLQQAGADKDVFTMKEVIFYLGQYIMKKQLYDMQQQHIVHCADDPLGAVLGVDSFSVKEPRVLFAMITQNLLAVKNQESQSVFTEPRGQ
Chain of MDM2 SWIB domain, Anguilla anguilla (as listed by the source): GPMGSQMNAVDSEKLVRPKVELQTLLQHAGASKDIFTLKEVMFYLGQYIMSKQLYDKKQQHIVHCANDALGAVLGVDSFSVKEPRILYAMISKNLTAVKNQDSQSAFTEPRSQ
T1 sequence (Q00987 with tags, fused parts or gaps): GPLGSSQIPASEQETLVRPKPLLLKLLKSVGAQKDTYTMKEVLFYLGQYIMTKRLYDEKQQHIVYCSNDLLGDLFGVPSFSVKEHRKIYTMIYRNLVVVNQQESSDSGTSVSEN
Chain of MDM2 SWIB domain, Clupea harengus (as listed by the source): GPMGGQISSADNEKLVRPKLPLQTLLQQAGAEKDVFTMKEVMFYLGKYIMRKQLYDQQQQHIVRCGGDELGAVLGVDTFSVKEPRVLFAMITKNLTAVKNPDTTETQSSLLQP

In assay [1], `CC[C@H](C)[C@H](NC(=O)[C@H](CO)NC(=O)[C@H](CC(N)=O)NC(=O)[C@H](Cc1c[nH]c2ccccc12)NC(=O)[C@H](CC(C)C)NC(=O)[C@H](CC(=O)O)NC(=O)[C@H](CCC(=O)O)NC(=O)[C@H](Cc1ccccc1)NC(=O)[C@H](CC(=O)O)NC(=O)[C@@H]1CCCN1C(=O)[C@H](CO)NC(=O)[C@H](CC(=O)O)NC(C)=O)C(=O)N[C@H](C(=O)O)C(C)C` [C.har p53 P2 short] showed a concentration for half-maximal inhibition (IC50) of 2310 nM and a Ki of 293 nM.
As to `CC(C)C[C@H](NC(=O)[C@@H](NC(=O)[C@H](CC(N)=O)NC(=O)[C@H](CC(N)=O)NC(=O)[C@H](CCC(=O)O)NC(=O)[C@H](C)NC(=O)[C@H](CC(C)C)NC(=O)[C@H](CC(C)C)NC(=O)[C@H](CCCCN)NC(=O)[C@H](Cc1c[nH]c2ccccc12)NC(=O)[C@H](CC(C)C)NC(=O)[C@H](CC(=O)O)NC(=O)[C@H](CO)NC(=O)[C@H](Cc1ccccc1)NC(=O)[C@@H](NC(=O)[C@@H](N)CCC(=O)O)[C@@H](C)O)C(C)C)C(=O)O` [H.sap p53 P27A], the “remark on affinity beside the average Ki” value in assay [1] (probe 15 nM, protein 200 nM, calculated Ki negative) was “very high affinity”.
Consider Ac-GQCSFQQLWESNM [O.kis p53 P1a short], for which, in assay [1], the IC50 is 23200 nM and the affinity, expressed as Ki, was 3150 nM.
The corresponding values for Ac-SQDETFQALWNTVT [A.ang p53 P2 short] are 5780 nM and 767 nM.
In assay [1], Ac-SQDSFKELWDQLP [M.zeb p53 P1 short] came in with an IC50 of 2150 nM and a Ki of 270 nM.
The corresponding values for Ac-SQDSFRELWESVV [C.arg p53 P1 short] are 8080 nM and 1080 nM.
The corresponding values for Ac-SQDTFQDLWENVA [T.rub p53 P1 short] are 12700 nM and 1710 nM.
In the case of Ac-SQESFEDLWKMNL [O.kis p53 P2 short], in assay [1], the IC50 was determined as 5930 nM and the Ki turned out to be 787 nM.
For Ac-SQESFQDLWNMVT [Acti p53 ML], in that order: 1510 nM and 183 nM.
In assay [1], Ac-SQESFQELWKMIL [Tele p53 AA] had a half-maximal inhibitory concentration (IC50) of 105 nM. The KD entry in assay [1] (FP displacement, printed in nM (Fig. S4 A native and B human MDM2)) is given as “lowest_Kd”. The “Ki, remark beside the average” value in assay [1] (H.sap MDM2, labeled probe 15 nM, protein 200 nM, result in words) was “very high affinity”.
In assay [1], Ac-SQESFQELWKMMC [A.ang p53 P1 short] yielded an IC50 of 265 nM and a Ki of 12.9 nM.
Consider Ac-SQESFQELWNMVA [Acti p53 AA], for which, in assay [1], the IC50 came out at 459 nM and binding was characterised by a dissociation constant (Kd) of 39 nM.
In assay [1], Ac-SQESFQELWNMVI [L.ocu p53 short] gave an IC50 of 1050 nM and a Ki of 120 nM.
In assay [1], Ac-SQESFQELWNMVM [Tele p53 ML] gave an IC50 of 456 nM and a Kd of 39 nM.
In assay [1], Ac-SQGTFDEIWASNF [C.har p53 P1 short] gave an IC50 of 9330 nM and a Ki of 1250 nM.
The molecule “GPMGMADLAENVSLPLSQESFEDLWKMNLNLMAVQPPVTESWVGYDNFMMEAPLQVEFDPSLFEVSATEPAPQPSISTLDTGSPPTST [O.kis p53 P2 full, expressed full-length coho salmon p53TAD paralog 2]” yielded a Kd in assay [2] of 70 ± 10 nM. Besides, the IC50 was found to be 2.13e-06 M in assay [2] (setting [5]), 2.37e-06 M in assay [2] (setting [6]), 2.18e-06 M in assay [2] (setting [7]) and 2.23e-06 M in assay [2] (setting [13]). For the same molecule, the inhibitory constant (Ki) in assay [2] (setting [8]) was 68.6 nM; in assay [2] (setting [9]), 69 nM; in assay [2] (setting [10]) it was 55.4 nM; in assay [2] (setting [11]) it was 88.9 nM; in assay [2] (setting [12]), 61.7 nM.
“GPMGMEELSPPLGQCSFQQLWESNMTPQGPSIPLVATENWSDLDVSLLPDATLHKVFDEVLFELLEPPVVEPSVSTLDSVPPPAST [O.kis p53 P1a full, expressed full-length coho salmon p53TAD paralog 1a]”: the Kd in assay [2] turned out to be 48 ± 5 nM. Besides, the IC50 amounted to 2.11e-06 M in assay [2] (setting [5]), 2.02e-06 M in assay [2] (setting [6]), 2.12e-06 M in assay [2] (setting [7]) and 2.08e-06 M in assay [2] (setting [13]). The Ki in assay [2] (setting [8]) is 48.4 nM; in assay [2] (setting [9]) it was 48 nM; in assay [2] (setting [10]), 52.4 nM; in assay [2] (setting [11]), 38.8 nM; in assay [2] (setting [12]), 54.1 nM.
Consider “GPMGMEEQELSFPMSQGSFQQLWETNMSTQGSNIPPFGTGNWSDLDVSLAPVLPEATFHEDFDEGLFELPEPLAVEPLMSPLDSVPPPAST [O.kis p53 P1b full, expressed full-length coho salmon p53TAD paralog 1b]”, for which, in assay [2], the Kd is 60 ± 10 nM. For the same molecule, the IC50 turned out to be 2.27e-06 M in assay [2] (setting [5]), 2.26e-06 M in assay [2] (setting [6]), 1.96e-06 M in assay [2] (setting [7]) and 2.16e-06 M in assay [2] (setting [13]). Besides, the Ki was 59.6 nM in assay [2] (setting [8]); 60 nM in assay [2] (setting [9]); 75.2 nM in assay [2] (setting [10]); 73.4 nM in assay [2] (setting [11]); 30.3 nM in assay [2] (setting [12]).
With “GPMGMNDQGDSPDFEDLWNSIVPPVADVPWETSYLPESFDEQVFEQLQVSEPYIPTLGGGSPPCSA [C.har p53 P2 full, expressed full-length Atlantic herring p53TAD paralog 2]”, in assay [3], binding was characterised by a dissociation constant (Kd) of 40 ± 10 nM. Further, the IC50 in assay [3] (setting [14]) was 904 nM; in assay [3] (setting [17]), 913 nM; in assay [3] (setting [19]), 983 nM; in assay [3] (setting [21]), 815 nM. The Ki is 37.1 nM in assay [3] (setting [15]); 37 nM in assay [3] (setting [16]); 39.8 nM in assay [3] (setting [18]); 59.7 nM in assay [3] (setting [20]); 11.9 nM in assay [3] (setting [22]).
“GPMGMNQDEMTELPMSQGTFDEIWASNFVNNLDKTILDDLPPAFSNPSIHTLMDLGPSGVEGFVGLELPLDGSAPTPSSSPGMDCLPPTATT [C.har p53 P1 full, expressed full-length Atlantic herring p53TAD paralog 1]” gave a Kd in assay [3] of 190 ± 40 nM. In addition, the IC50 in assay [3] (setting [14]) worked out at 1440 nM; in assay [3] (setting [17]), 1470 nM; in assay [3] (setting [19]), 1660 nM; in assay [3] (setting [21]) it was 1180 nM. Also, the Ki in assay [3] (setting [15]) was 189 nM; in assay [3] (setting [16]), 190 nM; in assay [3] (setting [18]), 199 nM; in assay [3] (setting [20]), 252 nM; in assay [3] (setting [22]), 117 nM.
In assay [4], “GPMGMTEQEAESLPLSQESFQELWKMMCPPATIHEPLSVNDGWHLESLLSETPLQESIDAGVFDLPTTLPPQPSVSAFNGDAALSST [A.ang p53 P1 full, expressed full-length European eel p53TAD paralog 1]” came in with a Kd of 230 ± 20 nM. Besides, the IC50 worked out at 2210 nM in assay [4] (setting [14]), 2080 nM in assay [4] (setting [17]), 2490 nM in assay [4] (setting [19]) and 2060 nM in assay [4] (setting [21]). Also, the Ki in assay [4] (setting [15]) was 229 nM; in assay [4] (setting [16]), 229 nM; in assay [4] (setting [18]) it was 208 nM; in assay [4] (setting [20]), 277 nM; in assay [4] (setting [22]), 203 nM.
In assay [4], “GPMGMTEQEGTGALEYSLSQDETFQALWNTVTVPTEDEGWGSLDNQYLVGSPLQDGFDEKLFDVPATPAPPQPSGSALDSGAPPAST [A.ang p53 P2 full, expressed full-length European eel p53TAD paralog 2]” displayed a Kd of 60 ± 10 nM. Moreover, the concentration for half-maximal inhibition (IC50) in assay [4] (setting [14]) came out at 1230 nM; in assay [4] (setting [17]) it was 1360 nM; in assay [4] (setting [19]), 1080 nM; in assay [4] (setting [21]), 1240 nM. The Ki was 63.5 nM in assay [4] (setting [15]); 63.5 nM in assay [4] (setting [16]); 85.1 nM in assay [4] (setting [18]); 39.5 nM in assay [4] (setting [20]); 65.8 nM in assay [4] (setting [22]).
